Read-outs that look alike come from different tables or passages of the source.
Target: T1, N-type Ca^2+ Channel (Homo sapiens, UniProt Q00975)
T1 construct: host or cells: IMR-32 cells differentiated with dibutyryl cAMP and bromodeoxyuridine
Assay: Measurement of N-type Ca2+ channel blocking potencies in IMR-32 cells using the fluorescent Ca2+ indicator Indo-1
Assay type: cell-based
Method: Measurement of N-type Ca^2+ Channel Blocking Potencies of Compounds in IMR-32 Cells Using the Fluorescent Ca^2 + Indicator Indo-1
IMR-32 cells are a human tumoral cell line of neural origin. […] Calcium flux into these cells may be induced by stimulation with elevated potassium concentrations. The L-channel component of calcium flux may be blocked by adding 5 μM nitrendipine. The remaining component of calcium entry into the IMR-32 cells is due to calcium flux through N-type calcium channels. Intracellular calcium concentrations are measured using the fluorescent calcium indicator Indo-1. The effect of drug concentration on calcium uptake is studied.
The IMR-32 cell line was obtained from the American Type Culture Collection (Rockville, Md.). Cells were grown in Eagle's Minimum Essential Medium with Earle's salts supplemented with 10% fetal bovine serum, 2 mM L-Gln and antibiotic/antimycotic mixture (Gibco). At approximately 80% confluency, differentiation was induced by the addition of 1 mM dibutyryl cAMP and 2.5 μM bromodeoxyuridine to the medium. After 7 to 13 days of differentiation, cells were detached using 0.5 mM EDTA and loaded with 5 μM Indo-1 acetoxymethyl ester (Molecular Probes, Eugene, Oreg.) at 30° C. for 45 minutes. Loaded cells were washed twice, resuspended (~10^7 cells/mL) in assay buffer (10 mM HEPES/Tris pH 7.4 in Hank's Balanced Salt Solution without bicarbonate or phenol red containing 0.5% bovine serum albumin) and kept on ice until use. Fluorescence measurements were carried out in a Photon Technology International (PTI, South Brunswick, N.J.) Model RF-F3004 spectrofluorometer with dual emission monochromators using excitation at 350 nm and emission at 400 and 490 nm. The instrument was equipped with a thermostated cuvette holder with stirring capabilities as well as with a computer-controlled pump which allowed for reagent addition during measurement. Instrument control and data collection was done by PTI's OSCAR software running on an IBM compatible computer. Different concentrations of the test compounds (60 μL in dimethyl sulfoxide) were added to 5.94 mL of assay buffer containing approximately 3×10^6 loaded cells, and 5 μM nitrendipine (in 30 μL EtOH) to block L-type Ca^2+ channels. Samples were incubated for 10 minutes at 30° C. and then aliquoted into three 10×10 mm disposable acrylic cuvettes. Emission signals at 400 and 490 nm were acquired from each cuvette at 30° C. for 50 seconds. At 20 seconds after the start of reading, cells were depolarized by the addition of 160 μL of stimulation solution (1 M KCl, 68 mM CaCl2) to the cuvette via the computer-controlled pump. Ratio of dual emission signals (400 nm/ 490 nm), which is proportional to intracellular Ca^2+ concentration, was plotted against time, and the difference between maximal response after stimulation and basal value (before stimulation) was determined. Values obtained in this way were plotted as a function of drug concentration. IC50 values of test compounds were calculated by fitting a four-parameter logistic function to the data using the least squares method.

[1] = IMR-32 cells, K+ depolarization, 5 μM nitrendipine to block L-type channels, read-out: IMR 32 IC50
[2] = IMR-32 cells, 5 μM nitrendipine, Examples 116-140, read-out: IMR 32% of Blockade @
[3] = IMR-32 cells, 5 μM nitrendipine

T1 sequence (Q00975 whole entry): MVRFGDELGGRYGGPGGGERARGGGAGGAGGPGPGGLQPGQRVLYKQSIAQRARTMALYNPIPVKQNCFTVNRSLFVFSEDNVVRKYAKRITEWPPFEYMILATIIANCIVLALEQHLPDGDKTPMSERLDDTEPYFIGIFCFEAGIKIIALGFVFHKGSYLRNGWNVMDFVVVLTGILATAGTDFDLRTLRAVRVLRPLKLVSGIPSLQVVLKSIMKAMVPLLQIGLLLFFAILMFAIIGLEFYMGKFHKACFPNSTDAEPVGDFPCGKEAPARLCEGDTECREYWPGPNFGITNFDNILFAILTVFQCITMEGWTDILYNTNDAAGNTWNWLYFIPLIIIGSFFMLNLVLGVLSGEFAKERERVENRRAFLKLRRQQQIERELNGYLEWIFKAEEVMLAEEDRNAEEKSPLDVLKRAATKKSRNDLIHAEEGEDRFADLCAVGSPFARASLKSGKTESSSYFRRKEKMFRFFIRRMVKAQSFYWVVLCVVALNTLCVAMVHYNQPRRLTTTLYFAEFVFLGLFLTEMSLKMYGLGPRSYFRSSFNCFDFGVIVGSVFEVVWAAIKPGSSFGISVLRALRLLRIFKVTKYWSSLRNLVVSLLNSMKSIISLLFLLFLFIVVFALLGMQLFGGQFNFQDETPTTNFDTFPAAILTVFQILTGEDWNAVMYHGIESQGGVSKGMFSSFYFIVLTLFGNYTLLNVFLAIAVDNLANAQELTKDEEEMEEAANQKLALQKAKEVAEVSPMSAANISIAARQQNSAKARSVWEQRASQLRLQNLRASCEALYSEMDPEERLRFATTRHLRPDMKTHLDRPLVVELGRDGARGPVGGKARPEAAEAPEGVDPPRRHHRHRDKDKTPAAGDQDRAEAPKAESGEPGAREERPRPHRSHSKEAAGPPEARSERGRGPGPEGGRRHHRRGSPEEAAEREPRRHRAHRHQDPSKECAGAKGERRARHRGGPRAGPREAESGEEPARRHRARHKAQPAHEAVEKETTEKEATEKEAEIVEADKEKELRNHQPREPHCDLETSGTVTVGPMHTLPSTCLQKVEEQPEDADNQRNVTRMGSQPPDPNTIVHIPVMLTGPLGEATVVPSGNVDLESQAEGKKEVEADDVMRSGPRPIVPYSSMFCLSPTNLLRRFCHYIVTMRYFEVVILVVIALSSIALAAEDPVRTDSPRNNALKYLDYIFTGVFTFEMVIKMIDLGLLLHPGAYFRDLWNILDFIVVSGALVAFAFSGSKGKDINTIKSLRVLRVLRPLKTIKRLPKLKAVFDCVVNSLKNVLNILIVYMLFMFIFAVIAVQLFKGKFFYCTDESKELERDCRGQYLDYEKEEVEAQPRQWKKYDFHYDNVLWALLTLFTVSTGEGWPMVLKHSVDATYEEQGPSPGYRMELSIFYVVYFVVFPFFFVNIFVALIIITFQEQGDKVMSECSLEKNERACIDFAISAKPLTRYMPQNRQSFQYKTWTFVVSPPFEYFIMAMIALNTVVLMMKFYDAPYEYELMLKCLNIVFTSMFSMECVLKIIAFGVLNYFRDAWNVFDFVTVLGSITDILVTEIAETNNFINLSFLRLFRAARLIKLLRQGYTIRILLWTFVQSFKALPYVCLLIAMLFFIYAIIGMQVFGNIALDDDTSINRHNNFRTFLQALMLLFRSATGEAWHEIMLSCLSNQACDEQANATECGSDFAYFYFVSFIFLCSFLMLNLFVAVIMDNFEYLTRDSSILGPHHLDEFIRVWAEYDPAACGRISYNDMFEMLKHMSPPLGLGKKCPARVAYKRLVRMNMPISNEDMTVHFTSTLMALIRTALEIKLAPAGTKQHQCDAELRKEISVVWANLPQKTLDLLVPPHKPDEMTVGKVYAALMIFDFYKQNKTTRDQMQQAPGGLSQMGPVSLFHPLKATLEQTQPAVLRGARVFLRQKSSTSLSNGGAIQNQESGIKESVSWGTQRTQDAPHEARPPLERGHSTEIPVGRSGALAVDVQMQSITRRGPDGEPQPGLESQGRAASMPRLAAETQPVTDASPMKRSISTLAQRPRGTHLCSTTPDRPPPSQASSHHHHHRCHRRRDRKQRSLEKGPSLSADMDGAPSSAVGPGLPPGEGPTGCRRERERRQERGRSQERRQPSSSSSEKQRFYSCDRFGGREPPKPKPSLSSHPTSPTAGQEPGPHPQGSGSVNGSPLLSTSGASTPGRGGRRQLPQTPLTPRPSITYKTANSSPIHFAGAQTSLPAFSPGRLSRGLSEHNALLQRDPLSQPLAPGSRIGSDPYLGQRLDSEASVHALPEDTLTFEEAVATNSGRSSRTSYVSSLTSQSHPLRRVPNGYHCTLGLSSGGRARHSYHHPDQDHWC
T1 sequence (P54284 whole entry partner): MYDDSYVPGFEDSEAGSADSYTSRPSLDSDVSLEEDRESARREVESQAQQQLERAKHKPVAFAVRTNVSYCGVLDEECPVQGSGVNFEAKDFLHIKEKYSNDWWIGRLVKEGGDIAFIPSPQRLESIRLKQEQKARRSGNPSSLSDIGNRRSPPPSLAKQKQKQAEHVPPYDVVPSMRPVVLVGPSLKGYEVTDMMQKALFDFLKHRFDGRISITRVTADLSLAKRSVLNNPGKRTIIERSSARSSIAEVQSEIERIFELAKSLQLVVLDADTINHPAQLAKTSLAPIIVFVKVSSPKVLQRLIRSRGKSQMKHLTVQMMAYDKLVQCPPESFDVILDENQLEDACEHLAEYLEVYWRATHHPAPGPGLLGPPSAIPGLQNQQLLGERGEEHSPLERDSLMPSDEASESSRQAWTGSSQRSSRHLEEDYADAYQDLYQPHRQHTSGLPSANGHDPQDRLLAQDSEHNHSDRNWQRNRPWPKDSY
T1 sequence (P54289 25-946 partner limits assumed): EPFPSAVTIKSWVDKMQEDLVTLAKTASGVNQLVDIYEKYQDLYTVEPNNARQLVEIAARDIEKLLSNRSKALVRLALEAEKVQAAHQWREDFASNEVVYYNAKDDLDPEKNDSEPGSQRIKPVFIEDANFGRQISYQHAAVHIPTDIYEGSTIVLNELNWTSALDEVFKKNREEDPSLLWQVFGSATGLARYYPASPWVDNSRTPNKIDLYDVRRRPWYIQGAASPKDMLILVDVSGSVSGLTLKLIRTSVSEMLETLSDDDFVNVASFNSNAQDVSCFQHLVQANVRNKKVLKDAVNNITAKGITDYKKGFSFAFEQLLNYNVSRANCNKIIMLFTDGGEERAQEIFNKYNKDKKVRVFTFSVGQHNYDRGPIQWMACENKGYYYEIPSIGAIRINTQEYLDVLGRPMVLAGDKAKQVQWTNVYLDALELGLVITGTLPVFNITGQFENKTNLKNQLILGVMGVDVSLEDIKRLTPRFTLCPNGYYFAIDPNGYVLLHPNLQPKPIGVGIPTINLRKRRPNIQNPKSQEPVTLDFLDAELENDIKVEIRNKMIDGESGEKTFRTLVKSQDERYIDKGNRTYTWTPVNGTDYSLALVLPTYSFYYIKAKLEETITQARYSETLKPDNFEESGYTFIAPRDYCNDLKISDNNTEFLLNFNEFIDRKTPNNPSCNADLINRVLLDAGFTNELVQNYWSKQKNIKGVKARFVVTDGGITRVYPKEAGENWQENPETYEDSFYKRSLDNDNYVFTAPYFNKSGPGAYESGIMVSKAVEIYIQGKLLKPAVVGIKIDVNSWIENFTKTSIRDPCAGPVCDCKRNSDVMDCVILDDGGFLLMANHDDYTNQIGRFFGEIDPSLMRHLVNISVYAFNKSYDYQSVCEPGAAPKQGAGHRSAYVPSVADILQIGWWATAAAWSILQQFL
T1 sequence (P54289 947-1103 partner limits assumed): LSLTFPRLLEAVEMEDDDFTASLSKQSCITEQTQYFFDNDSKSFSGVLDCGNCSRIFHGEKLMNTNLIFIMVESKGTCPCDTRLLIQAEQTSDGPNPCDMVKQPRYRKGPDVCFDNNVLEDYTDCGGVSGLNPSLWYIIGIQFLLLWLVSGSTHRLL

Compound	IC50 [1]	further results
CC(C)C[C@@H](C(=O)N[C@@H](Cc1ccc(OCc2ccccc2)cc1)C(=O)NC(C)(C)C)N(C)C (relative stereo) [Example 1, [S-(R*,R*)]-2-Dimethylamino-4-methyl-pentanoic acid [2-(4-benzyloxy-phenyl)-1-tert-butylcarbamoyl-ethyl]-amide]	2300 nM	–
CC(C)CC(NC1CCOCC1)C(=O)NC(Cc1ccc(OCc2ccccc2)cc1)C(=O)NC(C)(C)C (stereo not drawn) [Example 78, [S-(R*,R*)]-4-Methyl-2-(tetrahydro-pyran-4-ylamino)-pentanoic acid [2-(4-benzyloxy-phenyl)-1-tert-butylcarbamoyl-ethyl]-amide]	1600 nM	–
CC(C)C[C@H](NC1CCOCC1)C(=O)N[C@@H](Cc1ccc(OCc2ccccc2)cc1)C(=O)NCCNCc1ccccc1 (relative stereo) [Example 71, [S-(R*,R*)]-4-Methyl-2-(tetrahydro-pyran-4-ylamino)-pentanoic acid [1-(2-benzylamino-ethylcarbamoyl)-2-(4-benzyloxy-phenyl)-ethyl]-amide]	700 nM	–
CC(C)C[C@@H](C(=O)N[C@@H](Cc1ccc(OCc2ccccc2)cc1)C(=O)NC(C)(C)C)N(C)CCC(C)(C)C (relative stereo) [Example 36, [S-(R*,R*)]-2-[(3,3-Dimethyl-butyl)-methyl-amino]-4-methyl-pentanoic acid [2-(4-benzyloxy-phenyl)-1-tert-butylcarbamoyl-ethyl]-amide]	400 nM	–
CC(C)C[C@@H](C(=O)N[C@@H](Cc1ccc(OCc2ccccc2)cc1)C(=O)N1CCCCC1)N(C)CC1CCCCC1 (relative stereo) [Example 26, [S-(R*,R*)]-2-(Cyclohexylmethyl-methyl-amino)-4-methyl-pentanoic acid [^2-(^4-benzyloxy-phenyl)-1-(piperidine-1-carbonyl)-ethyl]-amide]	600 nM	–
CC(C)C[C@H](N[C@@H]1C=CCCC1)C(=O)NC(Cc1ccc(OCc2ccccc2)cc1)C(=O)NC(C)(C)C (relative stereo) [Example 49, [S-(R*,R*)]-2-(Cyclohex-2-enylamino)-4-methyl-pentanoic acid [2-(4-benzyloxy-phenyl)-1-tert-butylcarbamoyl-ethyl]-amide]	660 nM	–
CC(C)C[C@@H](C(=O)N[C@@H](Cc1ccc(OCc2ccccc2)cc1)C(=O)NC1CCN(Cc2ccccc2)CC1)N(C)Cc1ccc(C(C)(C)C)cc1 (relative stereo) [Example 17, S-(R*,R*)]-2-[(4-tert-Butyl-benzyl)-methyl-amino]-4-methyl-pentanoic acid [2-(4-benzyloxy-phenyl)-1-(1-benzyl-piperidin-4-yl-carbamoyl)-ethyl]-amide]	440 nM	–
CC(C)C[C@@H](C(=O)N[C@@H](Cc1ccc(OCc2ccccc2)cc1)C(=O)N1CCSCC1)N(C)C (relative stereo) [Example 135, [S-(R*,R*)]-2-Dimethylamino-4-methyl-pentanoic acid [2-(4-benzyloxy-phenyl)-1-(thiomorpholinecarbamoyl)-ethyl]-amide]	–	IC50 [2]: 1400 nM
CC(C)CC(C(=O)NC(Cc1ccc(OCc2ccccc2)cc1)C(=O)NCCN1CCOCC1)N1CCOCC1 (stereo not drawn) [Example 119, [S-(R*,R*)]-4-Methyl-2-morpholin-4-yl-pentanoic acid [2-(4-benzyloxy-phenyl)-1-(2-morpholin-4-yl-ethylcarbamoyl)-ethyl]-amide]	–	IC50 [2]: 18000 nM
CCOC(=O)CN(C)[C@@H](CC(C)C)C(=O)N[C@@H](Cc1ccc(OCc2ccccc2)cc1)C(=O)NC(C)(C)C (relative stereo) [Example 96, [S-(R*,R*)]-({1-[2-(4-Benzyloxy-phenyl)-1-tert-butylcarbamoyl-ethylcarbamoyl]-3-methyl-butyl}-methyl-amino)-acetic acid ethyl ester]	4400 nM	–
CC(C)CCN(C)[C@@H](CC(C)C)C(=O)NC(Cc1ccc(OCc2ccccc2)cc1)C(=O)NCCNCc1ccccc1 (stereo in doubt) [Example 60, [S(R*,R*)]-4-Methyl-2-[methyl-(3-methyl-butyl)-amino]-pentanoic acid [1-(2-benzylamino-ethylcarbamoyl)-2-(4-benzyloxy-phenyl)-ethyl]-amide]	200 nM	–
CC(C)C[C@@H](C(=O)N[C@@H](Cc1ccc(OCc2ccccc2)cc1)C(=O)N1CCCCC1)N(C)Cc1ccc(C(C)(C)C)cc1 (relative stereo) [Example 14, [S-(R*,R*)]-2-[(4-tert-Butyl-benzyl)-methyl-amino]-4-methyl-pentanoic acid [2-(4-benzyloxy-phenyl)-1-(piperidine-1-carbonyl)-ethyl]-amide]	–	IMR 32 % of Blockade @ 1 μM [3]: 80%; IMR 32 % of Blockade @ 10 μM [3]: 85%
CC(C)C[C@@H](C(=O)N[C@@H](Cc1ccc(OCc2ccccc2)cc1)C(=O)NC1CCN(Cc2ccccc2)C1)N1CCOCC1 (relative stereo) [Example 69, [S-(R*,R*)]-4-Methyl-2-morpholin-4-yl-pentanoic acid [2-(4-benzyloxy-phenyl)-1-(1-benzyl-pyrrolidin-3-ylcarbamoyl)-ethyl]-amide]	1300 nM	–
CC(C)C[C@@H](C(=O)N[C@@H](Cc1ccc(OCc2ccccc2)cc1)C(=O)N1CCN(Cc2ccccc2)CC1)N(C)Cc1ccc(C(C)(C)C)cc1 (relative stereo) [Example 16, [S-(R*,R*)-2-[(4-tert-Butyl-benzyl)-methyl-amino]-4-methyl-pentanoic acid [1-(4-benzyloxy-benzyl)-2-(4-benzyl-piperazin-1-yl)-2-oxo-ethyl]-amide]	–	IMR 32 % of Blockade @ 1 μM [3]: 41%; IMR 32 % of Blockade @ 10 μM [3]: 66%
[S-(R*,R*)]-2-Dimethylamino-4-methyl-pentanoic acid [2-(4-benzyloxy-phenyl)-1-(2-hydroxymethylbutan-1-ol)-ethyl]-amide [Example 137]	–	IC50 [2]: 6200 nM
CC(C)C[C@@H](C(=O)N[C@@H](Cc1ccc(OCc2ccccc2)cc1)C(=O)NC(C)(C)C)N(C)Cc1ccc(N(C)C)cc1 (relative stereo) [Example 40, [S-(R*,R*)]-2-[(4-Dimethylamino-benzyl)-methyl-amino]-4-methyl-pentanoic acid [2-(4-benzyloxy-phenyl)-1-tert-butylcarbamoyl-ethyl]-amide]	–	IC50 (read-out: IMR 32 IC50): 280 nM
CC(C)CC(NC1CCOCC1)C(=O)NC(Cc1ccc(OCc2ccccc2)cc1)C(=O)OC(C)(C)C (stereo not drawn) [Example 85, [S-(R*,R*)]-3-(4-Benzyloxy-phenyl)-2-[4-methyl-2-(tetrahydro-pyran-4-ylamino)-pentanoylamino]-propionic acid tert-butyl ester]	320 nM	–
CC(C)CCN(C)[C@@H](CC(C)C)C(=O)N[C@@H](Cc1ccc(OCc2ccccc2)cc1)C(=O)NC1CCN(Cc2ccccc2)C1 (relative stereo) [Example 67, [S-(R*,R*)]-4-Methyl-2-[methyl-(3-methyl-butyl)-amino]-pentanoic acid [2-(4-benzyloxy-phenyl)-1-(1-benzyl-pyrrolidin-3-ylcarbamoyl)-ethyl]-amide]	400 nM	–
CC(C)CCN(C)[C@@H](CC(C)C)C(=O)N[C@@H](Cc1ccc(OCc2ccccc2)cc1)C(=O)NC(C)(CO)CO (relative stereo) [Example 62, [S-(R*,R*)]-4-Methyl-2-[methyl-(3-methyl-butyl)-amino]-pentanoic acid [2-(4-benzyloxy-phenyl)-1-(2-hydroxy-1-hydroxymethyl-1-methyl-ethylcarbamoyl)-ethyl]-amide]	1100 nM	–
CC(C)CCN(C)[C@@H](CC(C)C)C(=O)N[C@@H](Cc1ccc(OCc2ccccc2)cc1)C(=O)NC(C)(C)CO (relative stereo) [Example 116, [S-(R*,R*)]4-Methyl-2-[methyl-(3-methylbutyl)-amino]-pentanoic acid [2-(4-benzyloxy-phenyl)-1-(2-hydroxy-1,1-dimethyl-ethylcarbamoyl)-ethyl]-amide]	–	IC50 [2]: 1400 nM
CC(C)CCN(C)[C@@H](CC(C)C)C(=O)N[C@@H](Cc1ccc(OCc2ccccc2)cc1)C(=O)NCCN1CCCCC1 (relative stereo) [Example 117, [S-(R*,R*)]-4-Methyl-2-[methyl-(3-methylbutyl)-amino]-pentanoic acid [2-(4-benzyloxy-phenyl)-1-(2-piperidin-1-yl-ethylcarbamoyl)-ethyl]-amide]	–	IC50 [2]: 640 nM

Source: patent US6117841A, “Substituted peptidylamine calcium channel blockers” (Warner-Lambert Company, priority 1999, dated 2000)
